Read-outs that look alike come from different tables or passages of the source. Blank lines part the entries; values can stand above or below the compound they belong to.
Columns and labels:
MV4-11 cell lines [1] = assay: AC220 in combination with daunorubicin, cell viability study (CellTiter-Blue); format: cell-based; conditions: Homo sapiens; MV4-11, AC220 alone
Method: (§1) In this assay, the sequence of administration of AC220 and daunorubicin was examined for its cytotoxic effect. For the combination schedules tested, MV4-11 cell lines were cultured in RPMI medium with 10% fetal bovine serum and penicillin/streptomycin to a density of 3e5/mL to 1e6/mL and plated at 6e5 cells per well. […] Cytotoxicity was assessed using the CellTiter-Blue™ Viability Assay (#G8081 Promega). A combination index (CI) value was generated for each combination experiment using a commercially available software program (Calcusyn; Biosoft, Manchester, United Kingdom). The interaction of the two agents was analyzed using the median effect method of Chou and Talalay (Adv. Enyme Regul. 1984; 22:27-55).

[2] = system: MV4-11 solid tumor flank model; assay: In vivo study of AC220 plus Aza-C in the MV4-11 solid tumor flank model; parameters: species or system SCID mouse; conditions: for flank tumor volume: AC220 0.5 mkd PO
Method: The size of the tumors averaged about 230 mm^3. […] Aza-C was delivered in a formulation of sterile saline (10 ml/kg/day, prepared in 5-day batches) at about 3 or about 1 mkd, QD, IP, and dose was adjusted for body weight. The average group starting body weight was about 20.6 g. The clinical signs and body weight were measured twice weekly. White blood cell (WBC) counts determined at the end of the Aza-C dosing period and again 7 days post drug treatment. The study was carried out in one or multiple treatment cycles with Aza-C delivered for 5 days on each 15 day cycle. […] [table]

MV4-11 cell lines [3] = assay: AC220 in combination with cytarabine, cell viability study (CellTiter-Blue); format: cell-based; conditions: Homo sapiens; MV4-11, AC220 alone
Method: In this assay, the sequence of administration of AC220 and cytarabine was examined for its cytotoxic effect. For the combination schedules tested, MV4-11 cell lines were cultured in Iscove medium with 10% fetal bovine serum and penicillin/streptomycin to a density of 3e5/mL and plated at 6e4 cells per well. […] Cytotoxicity was assessed using the CellTiter-Blue™ Viability Assay (#G8081 Promega). A combination index (CI) value was generated for each combination experiment using a commercially available software program (Calcusyn; Biosoft, Manchester, United Kingdom). The interaction of the two agents was analyzed using the median effect method of Chou and Talalay (Adv. Enyme Regul. 1984; 22:27-55).

MV4-11 cell lines [4] = assay: AC220 in combination with etoposide, cell viability study (CellTiter-Blue); format: cell-based; conditions: Homo sapiens; MV4-11, AC220 alone
Method: as §1, with “etoposide” for “daunorubicin”, “22:27-55). The Combination index and Weighted combination index were calculated as described in Chou, Pharmacol. Rev. 58:621-681, 2006.” for “22:27-55).”
As described by Chou, supra, the ranges of CI indicate synergism, additive effect, and antagonism as follows:
CI<1—synergism, CI=1—additive effect, and CI>1—antagonism.

MV4-11 cell lines [5] = assay: AC220 in combination with cladribine, cell viability study (CellTiter-Blue); format: cell-based; conditions: Homo sapiens; MV4-11, AC220 alone
Method: as §1, with “cladribine” for “daunorubicin”, “Iscove” for “RPMI”, “3e5/mL” for “3e5/mL to 1e6/mL”, “6e4” for “6e5”

[6] = system: MV4-11 solid tumor flank model; assay: Efficacy study of AC220 plus cytarabine in the MV4-11 solid tumor flank model; format: in vivo, SCID mouse; conditions: for sustained complete regressions: either agent alone (Groups 3 and 5): cytarabine 30 mkd IP Day 1 to 10, AC220 1 mkd PO Day 1 to 24
Method: Dosing was initiated on day 14 post-inoculation with groups of 10 animals per arm. The size of the tumors averaged about 222 mm^3. […] Cytarabine was delivered in a formulation of sterile saline (5 ml/kg/day, prepared weekly) at about 30 or about 60 mkd, QD, IP, and dose was adjusted for body weight. […] The clinical signs and body weight were measured twice weekly. White blood cell (WBC) counts determined at the end of the cytarabine dosing period and again 7 days post drug treatment. The study was carried out in one or multiple treatment cycles with cytarabine delivered for 10 days on each 24 day cycle. […] [table]

MV4-11 cell lines [7] = conditions: MV4-11, cladribine alone; read-out: reported EC50 value; cited from earlier work
MV4-11 cell lines [8] = conditions: MV4-11, daunorubicin alone; read-out: reported EC50 value; cited from earlier work
MV4-11 cell lines [9] = conditions: MV4-11, cytarabine alone; read-out: reported EC50 value; cited from earlier work
MV4-11 cell lines [10] = conditions: MV4-11, etoposide alone; read-out: reported EC50 value; cited from earlier work

EC50 (MV4-11 cell lines [1]): 0.35 nM | EC50 (MV4-11 cell lines [3]): 0.35 nM | EC50 (MV4-11 cell lines [4]): 0.35 nM | EC50 (MV4-11 cell lines [5]): 0.35 nM
SMILES: CC(C)(C)c1cc(NC(=O)Nc2ccc(-c3cn4c(n3)sc3cc(OCCN5CCOCC5)ccc34)cc2)no1 [AC220, N-(5-tert-butyl-isoxazol-3-yl)-N′-{4-[7-(2-morpholin-4-yl-ethoxy)imidazo[2,1-b][1,3]benzothiazol-2-yl]phenyl}urea]
flank tumor volume ([2]; treatment at 15 days post inoculation): tumor stasis | flank tumor volume ([2]; treatment at 20 days post inoculation): tumor stasis | sustained complete regressions [6]: no sustained complete regressions

SMILES: Nc1nc(Cl)nc2c1ncn2[C@H]1C[C@H](O)[C@@H](CO)O1 [cladribine]
EC50 (MV4-11 cell lines [7]): 16.2 nM

SMILES: COc1cccc2c1C(=O)c1c(O)c3c(c(O)c1C2=O)C[C@@](O)(C(C)=O)C[C@@H]3O[C@H]1C[C@H](N)[C@H](O)[C@H](C)O1 [daunorubicin]
EC50 (MV4-11 cell lines [8]): 12.7 nM

SMILES: Nc1ncn([C@@H]2O[C@H](CO)[C@@H](O)[C@H]2O)c(=O)n1 [Aza-C, azacitidine]
reduction in tumor volume ([2]; Aza-C at the 3 mkg dose, IP, Day 1 to 5): ~50%

SMILES: Nc1ccn([C@@H]2O[C@H](CO)[C@@H](O)[C@@H]2O)c(=O)n1 [cytarabine]
EC50 (MV4-11 cell lines [9]): 380 nM | sustained complete regressions [6]: no sustained complete regressions | tumor burden ([6]; sequential, second administration of Ara-C in animals that had 2 weeks of AC220 treatment): capable of reducing tumor burden

SMILES: COc1cc([C@@H]2c3cc4c(cc3[C@@H](O[C@@H]3O[C@@H]5CO[C@@H](C)O[C@H]5[C@H](O)[C@H]3O)[C@H]3COC(=O)[C@H]23)OCO4)cc(OC)c1O [etoposide]
EC50 (MV4-11 cell lines [10]): 34.6 nM

From patent publication US8836218B2, “Methods of treatment using combination therapy” (Ambit Biosciences Corp., priority 2009, dated 2014)
